From ChEMBL document CHEMBL1269000, “Synthesis and biological evaluation of [D-lysine]8cyclosporin A analogs as potential anti-HCV agents” (Bioorg Med Chem Lett, 2010)

Assays:
[1] = target: Peptidyl-prolyl cis-trans isomerase B (Homo sapiens, UniProt P23284); experiment: Binding affinity to cyclophilin B by ELISA
[2] = tested on: Jurkat; experiment: Immunosuppressive activity against human Jurkat cells assessed as inhibition of phytohemagglutinin-M/phorbol myristate acetate-induced IL2 production; format: cell-based
[3] = Cytotoxicity against human HuH7 cells assessed as release of lactate dehydrogenase; format: cell-based, Huh-7
[4] = target: Peptidyl-prolyl cis-trans isomerase A (Homo sapiens, UniProt P62937); experiment: Binding affinity to cyclophilin A by ELISA
Peptidyl-prolyl cis-trans isomerase A, sequence (P62937 whole entry): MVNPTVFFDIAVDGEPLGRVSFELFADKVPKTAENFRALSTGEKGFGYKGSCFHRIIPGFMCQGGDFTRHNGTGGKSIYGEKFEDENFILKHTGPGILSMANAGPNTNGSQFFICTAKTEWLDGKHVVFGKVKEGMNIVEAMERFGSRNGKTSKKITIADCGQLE

[5] = tested on: Hepatitis C virus; experiment: Antiviral activity against HCV after 72 hrs by stable luciferase reporter gene assay; format: functional, organism-based, Hepacivirus hominis

Peptidyl-prolyl cis-trans isomerase B, sequence (P23284 whole entry): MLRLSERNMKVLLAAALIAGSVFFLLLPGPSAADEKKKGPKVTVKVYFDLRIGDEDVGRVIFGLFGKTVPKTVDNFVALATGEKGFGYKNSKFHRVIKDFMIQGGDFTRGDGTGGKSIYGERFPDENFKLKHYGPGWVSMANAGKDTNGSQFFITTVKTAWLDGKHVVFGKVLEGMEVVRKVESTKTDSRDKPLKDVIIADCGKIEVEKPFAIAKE

C/C=C/C[C@@H](C)[C@@H](O)[C@H]1C(=O)N[C@@H](CC)C(=O)N(C)CC(=O)N(C)[C@@H](CC(C)C)C(=O)N[C@@H](C(C)C)C(=O)N(C)[C@@H](CC(C)C)C(=O)N[C@@H](C)C(=O)N[C@H](CCCCN(CC)CC)C(=O)N(C)[C@@H](CC(C)C)C(=O)N(C)[C@@H](CC(C)C)C(=O)N(C)[C@@H](C(C)C)C(=O)N1C showed an IC50 [1] of 0.0198 µM, an EC50 [2] of 2.17 µM and an IC50 ([3]; Homo sapiens, Huh-7) of 2.24 µM. It also gave an IC90 ([3]; human, HuH7 cells) of 7.9 µM, an IC50 [4] of 0.0266 µM and an EC50 [5] of 0.18 µM. For the same compound, the EC90 [5] was 0.53 µM.
